We go through 22 compounds from US11021446B2 (NOVARTIS AG, priority 2013, dated 2021).

The assay concerns the target T1, human Farnesoid X Receptor (FXR) ligand binding domain (GST-FXR LBD) (Homo sapiens, UniProt Q96RI1).
T1 construct: purchased Invitrogen
T1 sequence (Q96RI1 193-472 isoform Q96RI1-2): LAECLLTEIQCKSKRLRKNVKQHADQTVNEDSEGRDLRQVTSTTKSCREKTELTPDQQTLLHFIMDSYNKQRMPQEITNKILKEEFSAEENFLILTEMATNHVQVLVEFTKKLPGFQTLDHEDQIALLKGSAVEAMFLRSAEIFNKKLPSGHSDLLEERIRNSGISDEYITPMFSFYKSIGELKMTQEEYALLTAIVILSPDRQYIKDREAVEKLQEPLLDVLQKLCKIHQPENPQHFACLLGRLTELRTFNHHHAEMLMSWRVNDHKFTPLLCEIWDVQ
As to the kind of experiment: Human GST-FXR LBD co-activator interaction assay (FXR HTRF assay). As to conditions: GST-FXR LBD interaction with biotin-labeled SRC-1 peptide, FRET, response relative to GW4064, read-out: FXR coactivator interaction assay (HTRF). In kind it is biochemical. The source says: Human GST-FXR LBD Co-Activator Interaction Assay
The FXR HTRF assay is a biochemical assay measuring the interaction between FXR and a coactivator protein (SRC1). The ligand-induced interaction with a coactivator protein is a critical step in transcriptional activation by FXR. Thus, this is an assay designed to measure FXR agonist activity of the test compounds.
Recombinant human Farnesoid X Receptor (FXR) ligand binding domain (amino acids 193-472) fused to glutathione S-transferase (GST) purified protein (GST-FXR LBD) was purchased (Invitrogen). The ligand-dependent interaction between GST-FXR LBD and a peptide derived from Steroid Receptor Coactivator-1 (SRC-1) was monitored by Fluorescence Resonance Energy Transfer (FRET). […] Test compounds (in DMSO solution) and detection reagents (anti-GST-Cryptate labeled antibody and Streptavidin-XL665 conjugate; CisBio) were added in assay buffer containing 50 mM KF. Plates are incubated at room temperature in the dark for 2.5 hrs before reading on an Envision (PerkinElmer) at 665 nm and 590 nm. The HTRF assay results were calculated from the 665 nm/590 nm ratio (ratio=(A665 nm/A590 nm)×10^4) and expressed in Delta F %=(Ratiosample−Rationegative)/Rationegative×100.
A negative control (without Streptavidin-XL665) was run with each assay and represented the background fluorescence. A reference FXR agonist, (E)-3-(2-chloro-4-((3-(2,6-dichlorophenyl)-5-isopropylisoxazol-4-yl)methoxy)styryl)benzoic acid (Compound GW4064), was included in each experiment as positive control. The efficacy of each test compound was compared to that of GW4064. At each concentration, the relative activity of the test compound was expressed as Response %=(Rsample−RDMSO)/(Rpositive−RDMSO), where Rsample is the HTRF response (expressed in Delta F %) for the test compound, Rpositive is the maximal response for GW4064 at saturating concentrations, and RDMSO is the response for DMSO control. The EC50 values were calculated using GraphPad Prism (GraphPad Software) using non-linear regression curve fit (log(agonist) vs. response-variable slope (four parameters)).
Background: In TR-FRET formats the signal depends on donor and acceptor labels being close together.
In the case of `Cn1nc(C(=O)N(CC(=O)Nc2cccc(C(=O)O)c2)Cc2ccccc2F)c2c1-c1cc(Cl)cc(F)c1OC2` [Compound 15, 3-(2-(8-chloro-6-fluoro-N-(2-fluorobenzyl)-1-methyl-1,4-dihydrochromeno[4,3-c]pyrazole-3-carboxamido)acetamido)benzoic acid], the EC50 came out at 2.22 nM.

On to `Cn1nc(C(=O)N(CC(=O)Nc2cc(C(=O)O)ccc2F)Cc2ccccc2F)c2c1-c1ccccc1OC2` [Compound 16, 4-fluoro-3-(2-(N-(2-fluorobenzyl)-1-methyl-1,4-dihydrochromeno[4,3-c]pyrazole-3-carboxamido)acetamido)benzoic acid], for which the EC50 was found to be 3.4 nM.

With `Cn1nc(C(=O)N(CC(=O)Nc2cc(C(=O)O)ccc2F)Cc2ccccc2F)c2c1-c1cc(F)c(F)cc1OC2` [Compound 17, 3-(2-(7,8-difluoro-N-(2-fluorobenzyl)-1-methyl-1,4-dihydrochromeno[4,3-c]pyrazole-3-carboxamido)acetamido)-4-fluorobenzoic acid], the EC50 was 1 nM.

Consider `Cn1nc(C(=O)N(CC(=O)Nc2cc(C(=O)O)ccc2F)Cc2cccc(F)c2)c2c1-c1cc(F)c(F)cc1OC2` [Compound 18, 3-(2-(7,8-difluoro-N-(3-fluorobenzyl)-1-methyl-1,4-dihydrochromeno[4,3-c]pyrazole-3-carboxamido)acetamido)-4-fluorobenzoic acid], for which the EC50 worked out at 0.4 nM.

For `Cn1nc(C(=O)N(CC(=O)Nc2cc(C(=O)O)ccc2F)Cc2ccccc2)c2c1-c1cc(F)c(F)cc1OC2` [Compound 19, 3-(2-(N-benzyl-7,8-difluoro-1-methyl-1,4-dihydrochromeno[4,3-c]pyrazole-3-carboxamido)acetamido)-4-fluorobenzoic acid], the EC50 was found to be 0.5 nM.

As to `Cc1cccc(CN(CC(=O)Nc2cc(C(=O)O)ccc2F)C(=O)c2nn(C)c3c2COc2ccc(F)cc2-3)c1` [Compound 20, 4-fluoro-3-(2-(8-fluoro-1-methyl-N-(3-methylbenzyl)-1,4-dihydrochromeno[4,3-c]pyrazole-3-carboxamido)acetamido)benzoic acid], the EC50 amounted to 0.5 nM.

Consider `Cn1nc(C(=O)N(CC(=O)Nc2cccc(C(=O)O)c2)Cc2ccccc2F)c2c1-c1cc(Cl)ccc1CC2` [Compound 24, 3-(2-(8-chloro-N-(2-fluorobenzyl)-1-methyl-4,5-dihydro-1H-benzo[g]indazole-3-carboxamido)acetamido)benzoic acid], for which the EC50 came to 3.2 nM.

Take `Cn1nc(C(=O)N(CC(=O)Nc2cccc(C(=O)O)c2)Cc2ccccc2F)c2c1-c1cc(Cl)c(F)cc1OC2` [Compound 25, 3-(2-(8-chloro-7-fluoro-N-(2-fluorobenzyl)-1-methyl-1,4-dihydrochromeno[4,3-c]pyrazole-3-carboxamido)acetamido)benzoic acid]: the EC50 was determined as 0.7 nM.

Consider `Cn1nc(C(=O)N(CC(=O)Nc2cc(C(=O)O)ccc2F)Cc2cccc(F)c2)c2c1-c1ccccc1OC2` [Compound 27, 4-fluoro-3-(2-(N-(3-fluorobenzyl)-1-methyl-1,4-dihydrochromeno[4,3-c]pyrazole-3-carboxamido)acetamido)benzoic acid], for which the EC50 came out at 1.4 nM.

Consider `Cn1nc(C(=O)N(CC(=O)Nc2cc(C(=O)O)ccc2F)Cc2cccc(F)c2)c2c1-c1cc(Cl)ccc1OC2` [Compound 28, 3-(2-(8-chloro-N-(3-fluorobenzyl)-1-methyl-1,4-dihydrochromeno[4,3-c]pyrazole-3-carboxamido)acetamido)-4-fluorobenzoic acid], for which the EC50 stood at 0.38 nM.

In the case of `Cn1nc(C(=O)N(CC(=O)Nc2cc(C(=O)O)ccc2F)Cc2ccccc2)c2c1-c1cc(Cl)ccc1OC2` [Compound 29, 3-(2-(N-benzyl-8-chloro-1-methyl-1,4-dihydrochromeno[4,3-c]pyrazole-3-carboxamido)acetamido)-4-fluorobenzoic acid], the EC50 came to 0.67 nM.

Turning to `Cc1ccc(C(=O)O)cc1NC(=O)CN(Cc1ccccc1F)C(=O)c1nn(C)c2c1COc1ccc(Cl)cc1-2` [Compound 30], the EC50 turned out to be 0.6 nM.

For `Cn1nc(C(=O)N(CC(=O)Nc2cccc(C(=O)O)c2)Cc2ccccc2)c2c1-c1cc(Cl)ccc1OC2` [Compound 31, 3-(2-(N-benzyl-8-chloro-1-methyl-1,4-dihydrochromeno[4,3-c]pyrazole-3-carboxamido)acetamido)benzoic acid], the EC50 amounted to 0.47 nM.

As to `Cn1nc(C(=O)N(CC(=O)Nc2cc(C(=O)O)ccc2F)Cc2ccccc2)c2c1-c1cc(F)ccc1OC2` [Compound 32, 3-(2-(N-benzyl-8-fluoro-1-methyl-1,4-dihydrochromeno[4,3-c]pyrazole-3-carboxamido)acetamido)-4-fluorobenzoic acid], the EC50 worked out at 0.74 nM.

Consider `Cn1nc(C(=O)N(CC(=O)Nc2cc(C(=O)O)ccc2F)Cc2ccccc2)c2c1-c1ccccc1OC2` [Compound 33, 3-(2-(N-benzyl-1-methyl-1,4-dihydrochromeno[4,3-c]pyrazole-3-carboxamido)acetamido)-4-fluorobenzoic acid], for which the EC50 came out at 1.5 nM.

`Cn1nc(C(=O)N(CC(=O)Nc2cc(C(=O)O)ccc2F)Cc2ccccc2F)c2c1-c1cc(Cl)ccc1OCC2` [Compound 34, 3-(2-(9-chloro-N-(2-fluorobenzyl)-1-methyl-4,5-dihydro-1H-benzo[2,3]oxepino[4,5-c]pyrazole-3-carboxamido)acetamido)-4-fluorobenzoic acid]: the EC50 was 2.1 nM.

As to `Cn1nc(C(=O)N(CC(=O)Nc2cccc(C(=O)O)c2)Cc2ccccc2F)c2c1-c1cc(Cl)ccc1OC2` [Compound 35, 3-(2-(8-chloro-N-(2-fluorobenzyl)-1-methyl-1,4-dihydrochromeno[4,3-c]pyrazole-3-carboxamido)acetamido)benzoic Acid], the EC50 was 0.77 nM.

For `Cn1nc(C(=O)N(CC(=O)Nc2cc(C(=O)O)ccc2F)CC2CCCC2)c2c1-c1cc(Cl)ccc1OC2` [Compound 36, 3-(2-(8-chloro-N-(cyclopentylmethyl)-1-methyl-1,4-dihydrochromeno[4,3-c]pyrazole-3-carboxamido)acetamido)-4-fluorobenzoic Acid], the EC50 was determined as 33 nM.

Turning to `Cn1nc(C(=O)N(CC(=O)Nc2cccc(C(=O)O)c2)CC2CCCC2)c2c1-c1cc(Cl)ccc1OC2` [Compound 37, 3-(2-(8-chloro-N-(cyclopentylmethyl)-1-methyl-1,4-dihydrochromeno[4,3-c]pyrazole-3-carboxamido)acetamido)benzoic Acid], the EC50 amounted to 24 nM.

With `Cn1nc(C(=O)N(CC(=O)Nc2cc(F)cc(C(=O)O)c2)Cc2ccccc2F)c2c1-c1cc(Cl)ccc1OC2` [Compound 38, 3-(2-(8-chloro-N-(2-fluorobenzyl)-1-methyl-1,4-dihydrochromeno[4,3-c]pyrazole-3-carboxamido)acetamido)-5-fluorobenzoic Acid], the EC50 worked out at 2.6 nM.

`Cc1ccc(C(=O)O)cc1NC(=O)CN(Cc1ccccc1F)C(=O)c1nn(C)c2c1COc1ccc(Cl)cc1-2` [Compound 39]: the EC50 worked out at 5.9 nM.

For the compound `CC(CNC(=O)CN(Cc1ccccc1F)C(=O)c1nn(C)c2c1COc1ccc(Cl)cc1-2)C(=O)O` (stereo not shown) [Compound 40, 3-(2-(8-chloro-N-(2-fluorobenzyl)-1-methyl-1,4-dihydrochromeno[4,3-c]pyrazole-3-carboxamido)acetamido)-2-methylpropanoic Acid], the EC50 turned out to be 8.6 nM.
